pIC50, pKi: −log10 of the molar value.
How the values were obtained:
Format in all cases: biochemical
GSK3β = biological target: T1, GSK3β (Homo sapiens, UniProt P49841); assay: GSK3β in vitro kinase assay; details: recombinant human GSK3β, 100 μM ATP
T1 construct: purchased New England Biolabs
Protocol: Both isoforms of GSK3 (α and β) are involved in the regulation of glycogen synthase activity—key enzyme in the glycogen metabolism.
A 10-point titration was set up to determine the IC50 values of selected example compounds against GSK3β. Assays were performed using 96-well microtiter plates with a final volume of 25 μL per well. Each assay contained 1.5 units of GSK3β(New England Biolabs), 200 μM CREB phosphopeptide ([…]pSYR, Alta Biosciences), 20 mM Tris HCl pH7.5, 5 mM DTT, 15 mM MgCl2 supplemented with 100 μM ATP and 0.5 μCi of [γ-^32P] ATP plus or minus inhibitor in 2% DMSO. Assays were carried out for 30 minutes at 30° C. before stopping the reaction by the addition of an equal volume of 75 mM aqueous phosphoric acid. Samples were then spotted onto a p81 filterplate (Whatman) and a vacuum was applied. Wells were washed 3 times with 200 μL of dilute aqueous phosphoric acid before the addition of 50 μL Microscint 40 per well. Incorporation of radioactivity was determined on a Topcount microplate scintillation counter (Packard).

aurora A = biological target: T2, aurora A (Homo sapiens, UniProt O14965); assay: Kinase assay aurora A; details: Ki calculated (Cheng-Prusoff) from experimentally determined IC50 and Km,ATP; read-out: Kinase Inhibition Ki Aurora A
T2 sequence (O14965 1-403): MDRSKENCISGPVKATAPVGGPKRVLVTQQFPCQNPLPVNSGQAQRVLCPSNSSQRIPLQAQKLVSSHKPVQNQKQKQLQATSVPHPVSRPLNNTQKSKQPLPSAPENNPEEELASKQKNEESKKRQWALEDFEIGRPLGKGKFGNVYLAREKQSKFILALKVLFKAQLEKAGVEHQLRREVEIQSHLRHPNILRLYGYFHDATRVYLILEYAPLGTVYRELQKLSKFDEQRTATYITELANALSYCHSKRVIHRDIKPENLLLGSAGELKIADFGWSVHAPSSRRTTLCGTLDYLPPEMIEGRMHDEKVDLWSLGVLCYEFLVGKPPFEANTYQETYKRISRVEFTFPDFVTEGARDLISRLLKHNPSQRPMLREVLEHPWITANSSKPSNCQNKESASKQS
Protocol: (§1) The compounds from the examples above were investigated for their ability to inhibit the enzymatic activity of various protein kinases. This was achieved by measurement of incorporation of radioactive phosphate from ATP into appropriate polypeptide substrates. Recombinant protein kinases and kinase complexes were produced or obtained commercially. Assays were performed using 96-well plates and appropriate assay buffers (typically 25 mM β-glycerophosphate, 20 mM MOPS, 5 mM EGTA, 1 mM DTT, 1 mM […], pH 7.4), into which were added 2-4 μg of active enzyme with appropriate substrates. […] Reactions were stopped on ice, followed by filtration through p81 filterplates or GF/C filterplates (Whatman Polyfiltronics, Kent, UK). After washing 3 times with 75 mM aq orthophosphoric acid, plates were dried, scintillant added and incorporated radioactivity measured in a scintillation counter (TopCount, Packard Instruments, Pangbourne, Berks, UK). Compounds for kinase assay were made up as 10 mM stocks in DMSO and diluted into 10% DMSO in assay buffer.

CDK4/cyclin D1 = CDK4/cyclin D1 (Homo sapiens, UniProt P11802); assay: Kinase assay CDK4/cyclin D1; details: Ki calculated (Cheng-Prusoff) from experimentally determined IC50 and Km,ATP; read-out: Kinase Inhibition Ki CDK4 - cyclin D1
Sequence of CDK4/cyclin D1 (P11802 whole entry, species assumed): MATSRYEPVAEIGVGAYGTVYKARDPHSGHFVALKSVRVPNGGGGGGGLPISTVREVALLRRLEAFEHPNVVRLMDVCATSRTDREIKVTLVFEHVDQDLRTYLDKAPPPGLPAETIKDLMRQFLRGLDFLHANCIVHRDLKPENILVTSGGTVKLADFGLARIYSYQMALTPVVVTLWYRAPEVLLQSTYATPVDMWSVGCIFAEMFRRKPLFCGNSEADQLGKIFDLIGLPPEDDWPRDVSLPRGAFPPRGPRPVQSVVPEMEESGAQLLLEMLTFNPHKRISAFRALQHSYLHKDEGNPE
Sequence of CDK4/cyclin D1 (P24385 whole entry partner, species assumed): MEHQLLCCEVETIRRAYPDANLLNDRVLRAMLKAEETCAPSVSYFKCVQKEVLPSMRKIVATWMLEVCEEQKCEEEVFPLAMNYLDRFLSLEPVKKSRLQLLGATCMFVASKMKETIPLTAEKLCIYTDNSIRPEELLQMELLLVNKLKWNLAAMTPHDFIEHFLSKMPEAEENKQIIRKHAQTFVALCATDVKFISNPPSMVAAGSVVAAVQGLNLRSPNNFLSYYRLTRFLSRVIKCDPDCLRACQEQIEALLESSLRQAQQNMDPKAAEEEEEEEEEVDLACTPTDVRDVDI
Protocol: (§2) The compounds from the examples above were investigated for their ability to inhibit the enzymatic activity of various protein kinases. This was achieved by measurement of incorporation of radioactive phosphate from ATP into appropriate polypeptide substrates. Recombinant protein kinases and kinase complexes were produced or obtained commercially. Assays were performed using 96-well plates and appropriate assay buffers (typically 25 mM β-glycerophosphate, 20 mM MOPS, 5 mM EGTA, 1 mM DTT, 1 mM […], pH 7.4), into which were added 2-4 μg of active enzyme with appropriate substrates. The reactions were initiated by addition of Mg/ATP mix (15 mM MgCl2+100 μM ATP with 30-50 kBq per well of [γ-^32P]-ATP) and mixtures incubated as required at 30° C. Reactions were stopped on ice, followed by filtration through p81 filterplates or GF/C filterplates (Whatman Polyfiltronics, Kent, UK). After washing 3 times with 75 mM aq orthophosphoric acid, plates were dried, scintillant added and incorporated radioactivity measured in a scintillation counter (TopCount, Packard Instruments, Pangbourne, Berks, UK). Compounds for kinase assay were made up as 10 mM stocks in DMSO and diluted into 10% DMSO in assay buffer.

CDK2/cyclin A = CDK2/cyclin A (Homo sapiens, UniProt P24941); assay: Kinase assay CDK2/cyclin A; details: Ki calculated (Cheng-Prusoff) from experimentally determined IC50 and Km,ATP; read-out: Kinase Inhibition Ki CDK2 - cyclin A
Protocol: as §1

CDK1/cyclin B = CDK1/cyclin B (Homo sapiens, UniProt P06493); assay: Kinase assay CDK1/cyclin B (radioactive phosphate incorporation); details: Ki calculated (Cheng-Prusoff) from experimentally determined IC50 and Km,ATP; read-out: Kinase Inhibition Ki CDK1 - cyclin B
Sequence of CDK1/cyclin B (P06493 whole entry, species assumed): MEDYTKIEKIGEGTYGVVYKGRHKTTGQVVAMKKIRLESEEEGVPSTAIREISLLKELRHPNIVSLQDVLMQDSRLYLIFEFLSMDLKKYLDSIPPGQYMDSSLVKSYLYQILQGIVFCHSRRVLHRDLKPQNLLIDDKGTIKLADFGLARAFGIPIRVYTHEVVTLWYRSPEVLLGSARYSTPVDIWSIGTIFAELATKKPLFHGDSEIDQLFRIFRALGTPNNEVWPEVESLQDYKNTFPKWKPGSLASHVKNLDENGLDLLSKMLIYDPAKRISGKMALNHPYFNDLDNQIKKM
Sequence of CDK1/cyclin B (P14635 whole entry partner, species assumed): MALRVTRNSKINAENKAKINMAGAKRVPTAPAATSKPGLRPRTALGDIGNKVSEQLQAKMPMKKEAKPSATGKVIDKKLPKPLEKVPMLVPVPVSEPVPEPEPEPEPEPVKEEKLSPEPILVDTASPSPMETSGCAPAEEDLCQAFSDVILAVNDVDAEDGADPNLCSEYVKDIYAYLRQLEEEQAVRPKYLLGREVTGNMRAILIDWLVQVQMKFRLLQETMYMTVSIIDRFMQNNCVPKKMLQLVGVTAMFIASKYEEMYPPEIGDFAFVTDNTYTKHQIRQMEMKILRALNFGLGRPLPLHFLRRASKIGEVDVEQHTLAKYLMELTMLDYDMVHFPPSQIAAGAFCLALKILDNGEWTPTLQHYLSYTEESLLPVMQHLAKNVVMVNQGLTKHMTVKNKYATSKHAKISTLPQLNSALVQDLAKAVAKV
Protocol: as §1

CDK7/cyclin H = CDK7/cyclin H (Homo sapiens, UniProt P50613); assay: Kinase assay CDK7/cyclin H; details: Ki calculated (Cheng-Prusoff) from experimentally determined IC50 and Km,ATP; read-out: Kinase Inhibition Ki CDK7 - cyclin H
Sequence of CDK7/cyclin H (P50613 whole entry, species assumed): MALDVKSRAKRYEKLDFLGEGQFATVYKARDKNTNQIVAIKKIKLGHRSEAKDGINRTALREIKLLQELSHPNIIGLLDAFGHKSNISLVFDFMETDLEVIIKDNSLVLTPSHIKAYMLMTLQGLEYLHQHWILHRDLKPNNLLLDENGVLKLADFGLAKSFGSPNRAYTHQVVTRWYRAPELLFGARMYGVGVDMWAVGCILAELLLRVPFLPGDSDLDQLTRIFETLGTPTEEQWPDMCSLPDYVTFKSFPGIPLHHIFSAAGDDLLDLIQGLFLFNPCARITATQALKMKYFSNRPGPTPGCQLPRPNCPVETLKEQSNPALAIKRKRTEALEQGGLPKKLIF
Sequence of CDK7/cyclin H (P51946 whole entry partner, species assumed): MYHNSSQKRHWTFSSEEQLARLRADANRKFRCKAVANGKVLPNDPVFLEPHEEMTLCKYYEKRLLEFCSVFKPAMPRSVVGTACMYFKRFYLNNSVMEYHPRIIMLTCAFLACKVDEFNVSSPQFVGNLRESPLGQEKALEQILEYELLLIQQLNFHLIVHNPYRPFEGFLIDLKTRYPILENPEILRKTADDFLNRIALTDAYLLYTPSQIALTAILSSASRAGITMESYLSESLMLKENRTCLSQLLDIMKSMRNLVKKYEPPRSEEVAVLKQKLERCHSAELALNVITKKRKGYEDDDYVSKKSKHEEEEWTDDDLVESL
Protocol: as §2

CDK2/cyclin E = CDK2/cyclin E (Homo sapiens, UniProt P24941); assay: Kinase assay CDK2/cyclin E; details: Ki calculated (Cheng-Prusoff) from experimentally determined IC50 and Km,ATP; read-out: Kinase Inhibition Ki CDK2 - cyclin E
Protocol: as §1

CDK9/cyclin T1 = CDK9/cyclin T1 (Homo sapiens, UniProt P50750); assay: Kinase assay CDK9/cyclin T1; details: Ki calculated (Cheng-Prusoff) from experimentally determined IC50 and Km,ATP; read-out: Kinase Inhibition Ki CDK9 - cyclin T1
Sequence of CDK9/cyclin T1 (P50750 whole entry, species assumed): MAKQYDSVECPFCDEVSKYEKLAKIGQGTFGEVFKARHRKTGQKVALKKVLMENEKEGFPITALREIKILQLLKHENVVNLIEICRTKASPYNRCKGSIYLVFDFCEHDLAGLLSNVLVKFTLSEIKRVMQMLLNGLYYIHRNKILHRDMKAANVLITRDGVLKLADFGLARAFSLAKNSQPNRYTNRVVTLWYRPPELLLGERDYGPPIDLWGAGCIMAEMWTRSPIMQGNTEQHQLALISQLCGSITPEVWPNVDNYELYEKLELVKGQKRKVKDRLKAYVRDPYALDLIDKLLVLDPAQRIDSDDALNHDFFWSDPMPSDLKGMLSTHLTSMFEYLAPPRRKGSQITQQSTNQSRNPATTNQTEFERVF
Sequence of CDK9/cyclin T1 (O60563 whole entry partner, species assumed): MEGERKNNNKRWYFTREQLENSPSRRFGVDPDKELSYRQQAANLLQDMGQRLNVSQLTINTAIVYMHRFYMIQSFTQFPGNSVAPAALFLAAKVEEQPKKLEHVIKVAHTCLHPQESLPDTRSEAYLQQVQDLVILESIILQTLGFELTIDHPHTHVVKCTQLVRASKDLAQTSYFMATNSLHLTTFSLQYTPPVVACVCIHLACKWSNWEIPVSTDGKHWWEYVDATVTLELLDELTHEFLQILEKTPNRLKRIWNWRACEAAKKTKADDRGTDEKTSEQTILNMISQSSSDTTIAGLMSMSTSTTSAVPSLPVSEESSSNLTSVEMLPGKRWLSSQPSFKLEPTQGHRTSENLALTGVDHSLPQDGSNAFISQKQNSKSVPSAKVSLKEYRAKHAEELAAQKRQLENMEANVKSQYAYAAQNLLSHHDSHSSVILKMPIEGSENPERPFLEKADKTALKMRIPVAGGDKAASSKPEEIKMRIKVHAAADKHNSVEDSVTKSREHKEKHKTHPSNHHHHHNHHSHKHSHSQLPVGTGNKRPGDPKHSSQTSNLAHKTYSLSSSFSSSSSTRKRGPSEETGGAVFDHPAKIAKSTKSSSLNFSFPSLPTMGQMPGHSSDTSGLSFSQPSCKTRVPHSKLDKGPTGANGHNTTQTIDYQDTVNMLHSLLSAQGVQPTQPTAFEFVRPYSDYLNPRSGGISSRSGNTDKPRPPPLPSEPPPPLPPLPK
Protocol: as §2

T1 sequence (P49841 whole entry): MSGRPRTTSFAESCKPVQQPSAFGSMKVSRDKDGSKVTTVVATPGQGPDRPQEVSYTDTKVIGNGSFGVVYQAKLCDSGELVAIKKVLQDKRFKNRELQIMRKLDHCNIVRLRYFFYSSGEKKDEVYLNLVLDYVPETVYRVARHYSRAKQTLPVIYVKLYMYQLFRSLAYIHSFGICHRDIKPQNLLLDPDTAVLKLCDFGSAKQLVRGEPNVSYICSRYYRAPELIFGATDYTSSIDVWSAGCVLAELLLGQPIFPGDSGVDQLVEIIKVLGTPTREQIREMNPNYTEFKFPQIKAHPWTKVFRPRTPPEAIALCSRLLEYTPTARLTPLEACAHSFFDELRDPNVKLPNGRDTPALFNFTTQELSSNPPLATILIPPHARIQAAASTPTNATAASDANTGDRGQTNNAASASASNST

| SMILES | pIC50 (GSK3β) | pKi (aurora A) | pKi (CDK4/cyclin D1) | pKi (CDK2/cyclin A) | pKi (CDK1/cyclin B) | pKi (CDK7/cyclin H) | pKi (CDK2/cyclin E) | pKi (CDK9/cyclin T1) |
| --- | --- | --- | --- | --- | --- | --- | --- | --- |
| Cc1c(-c2ccnc(Nc3ccc(CN)cc3)n2)sc(=O)n1C [Compound 80, 5-[2-(4-Aminomethyl-phenylamino)-pyrimidin-4-yl]-3,4-dimethyl-3H-thiazol-2-one] | 7.16 | 6.42 |  |  |  |  |  |  |
| Cc1c(-c2ccnc(Nc3cccc([N+](=O)[O-])c3)n2)sc(=O)n1C [Compound 1, 3,4-Dimethyl-5-[2-(3-nitro-phenylamino)-pyrimidin-4-yl]-3H-thiazol-2-one] |  | 6.15 | 6.52 | 6.77 | 6.00 | 8.55 | 8.00 | 9.52 |
| CCn1c(C)c(-c2ccnc(Nc3cccc(O)c3)n2)sc1=O [Compound 43, 3-Ethyl-5-[2-(3-hydroxy-phenylamino)-pyrimidin-4-yl]-4-methyl-3H-thiazol-2-one] | 7.38 |  | 6.89 |  |  | 7.72 | 8.70 |  |
| CCn1c(C)c(-c2ccnc(Nc3ccc(Cl)cc3)n2)sc1=O [Compound 46, 5-[2-(4-Chloro-phenylamino)-pyrimidin-4-yl]-3-ethyl-4-methyl-3H-thiazol-2-one] | 7.00 | 5.96 |  | 6.40 |  | 6.10 | 6.24 | 7.24 |
| Cc1c(-c2ccnc(Nc3cc(N)cc(C(F)(F)F)c3)n2)sc(=O)n1C [Compound 71, 5-[2-(3-Amino-5-trifluoromethyl-phenylamino)-pyrimidin-4-yl]-3,4-dimethyl-3H-thiazol-2-one] | 8.28 | 6.96 | 6.77 | 6.55 | 6.85 | 7.14 |  |  |
| Cc1c(-c2ccnc(Nc3cccc(S(=O)(=O)NC(C)C)c3)n2)sc(=O)n1C [Compound 74, 3-[4-(3,4-Dimethyl-2-oxo-2,3-dihydro-thiazol-5-yl)-pyrimidin-2-ylamino]-N-isopropyl-benzenesulfonamide] | 7.12 | 6.06 | 6.01 |  |  | 5.57 | 5.85 | 7.30 |
| COc1ccc(C)c(Nc2nccc(-c3sc(=O)n(C)c3C)n2)c1 [Compound 56, 5-[2-(5-Methoxy-2-methyl-phenylamino)-pyrimidin-4-yl]-3,4-dimethyl-3H-thiazol-2-one] | 5.46 | 5.59 |  |  |  | 5.54 |  | 6.34 |
| Cc1ccc(Nc2nccc(-c3sc(=O)n(C)c3C)n2)cc1S(=O)(=O)N1CCOCC1 [Compound 78, 3,4-Dimethyl-5-{2-[4-methyl-3-(morpholine-4-sulfonyl)-phenylamino]-pyrimidin-4-yl}-3H-thiazol-2-one] | 6.88 | 5.96 |  |  |  | 5.92 | 5.68 | 7.57 |
| CCn1c(C)c(-c2ccnc(Nc3ccc([N+](=O)[O-])cc3)n2)sc1=O [Compound 52, 3-Ethyl-4-methyl-5-[2-(4-nitro-phenylamino)-pyrimidin-4-yl]-3H-thiazol-2-one] |  | 7.60 | 5.92 | 6.80 | 6.14 | 7.15 | 7.11 | 7.80 |
| COCCNS(=O)(=O)c1ccc(Nc2nccc(-c3sc(=O)n(C)c3C)n2)cc1 [Compound 65, 4-[4-(3,4-Dimethyl-2-oxo-2,3-dihydro-thiazol-5-yl)-pyrimidin-2-ylamino]-N-(2-methoxy-ethyl)-benzenesulfonamide] | 8.05 | 6.28 |  |  | 8.39 | 6.03 |  | 7.85 |
| Cc1c(-c2ccnc(Nc3cccc(S(=O)(=O)N4CCOCC4)c3)n2)sc(=O)n1C [Compound 79, 3,4-Dimethyl-5-{2-[3-(morpholine-4-sulfonyl)-phenylamino]-pyrimidin-4-yl}-3H-thiazol-2-one] | 7.45 | 5.85 |  |  |  | 5.59 | 5.82 |  |
| Cc1c(-c2ccnc(Nc3ccc(S(=O)(=O)NCc4ccccc4)cc3)n2)sc(=O)n1C [Compound 73, N-Benzyl-4-[4-(3,4-dimethyl-2-oxo-2,3-dihydro-thiazol-5-yl)-pyrimidin-2-ylamino]-benzenesulfonamide] | 7.18 |  |  | 6.19 | 5.96 |  | 7.10 | 6.42 |
| Cc1c(-c2ccnc(Nc3ccc(N(C)C)c([N+](=O)[O-])c3)n2)sc(=O)n1C [Compound 22, 5-[2-(4-Dimethylamino-3-nitro-phenylamino)-pyrimidin-4-yl]-3,4-dimethyl-3H-thiazol-2-one] |  | 6.96 | 5.89 | 9.30 | 7.09 | 8.72 | 7.28 | 8.14 |
| CCn1c(C)c(-c2ccnc(Nc3ccc(S(=O)(=O)O)cc3)n2)sc1=O [Compound 53, 4-[4-(3-Ethyl-4-methyl-2-oxo-2,3-dihydro-thiazol-5-yl)-pyrimidin-2-ylamino]-benzenesulfonic acid] | 7.36 |  |  | 6.23 |  |  | 6.74 |  |
| CCn1c(C)c(-c2ccnc(Nc3ccc(N4CCOCC4)cc3)n2)sc1=O [Compound 27, 3-Ethyl-4-methyl-5-[2-(4-morpholin-4-yl-phenylamino)-pyrimidin-4-yl]-3H-thiazol-2-one] |  | 7.48 | 5.48 | 5.70 |  | 5.80 | 6.30 | 6.16 |
| Cc1cc(Nc2nccc(-c3sc(=O)n(C)c3C)n2)cnc1Cl [Compound 81, 5-[2-(6-Chloro-5-methyl-pyridin-3-ylamino)-pyrimidin-4-yl]-3,4-dimethyl-3H-thiazol-2-one] | 8.49 | 6.30 |  |  |  |  |  |  |
| CC(=O)NCc1cccc(Nc2nccc(-c3sc(=O)n(C)c3C)n2)c1 [Compound 42, N-{3-[4-(3,4-Dimethyl-2-oxo-2,3-dihydro-thiazol-5-yl)-pyrimidin-2-ylamino]-benzyl}-acetamide] | 7.41 |  | 6.11 | 6.66 | 6.24 | 6.42 | 7.47 | 7.72 |
| Cc1c(-c2ccnc(Nc3ccc(CNC(=O)c4ccccn4)cc3)n2)sc(=O)n1C [Compound 82, Pyridine-2-carboxylic acid 4-[4-(3,4-dimethyl-2-oxo-2,3-dihydro-thiazol-5-yl)-pyrimidin-2-ylamino]-benzylamide] | 7.55 | 7.20 |  |  |  |  |  |  |
